Tests used:
Type in all cases: in vivo
Scirpus juncoides = experiment: Test Example 1: herbicidal activity, application before weed generation in submerged conditions (symbol B); settings: application herbicide amount 320 g/ha
Method in brief: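 Weed control was rated three weeks after treatment on a 0–5 scale, from 5% or lower up to 90% or more. Pre-emergence water-surface application of diluted emulsion at a predetermined rate was made on the day of sowing, in flooded (4 cm water) pots containing rice seedlings, kept at 25–30 °C under glass.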

Amaranthus retroflexus = experiment: Test Example 4: herbicidal effect by soil treatment (symbol N); settings: application herbicide amount 320 g/ha
Method in brief: (§1)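 Seeds were sown in sterilized diluvial soil, covered with about 1.5 cm of soil, and the soil surface was sprayed with a water-diluted emulsion of the compound at a predetermined rate. Plants grew in a greenhouse at 25° C. to 30° C.; effects were scored visually 3 weeks after application.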

Lolium multiflorum Lam. = experiment: Test Example 4: herbicidal effect by soil treatment (symbol K); settings: application herbicide amount 320 g/ha
Method in brief: as §1

corn = experiment: Test Example 4: effect on crop by soil treatment (symbol c); settings: application herbicide amount 320 g/ha
Method in brief: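 Diluvial soil (sterilized) in boxes; seeds placed spot-wise alongside weed species; ~1.5 cm covering soil. Greenhouse, 25–30° C.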

[1] = system: Echinochloa crus-galli var. crus-galli; experiment: Test Example 4: herbicidal effect by soil treatment (symbol H); settings: application herbicide amount 320 g/ha
Method in brief: as §1

Veronica persica = experiment: Test Example 5: herbicidal effect by foliage application, plastic box (symbol R); settings: 320 g/ha, 3 weeks after application
Method in brief: (§2)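 Leaf-applied emulsion, water-diluted to a preset herbicide dose, on two-week-old seedlings raised in a 25° C. to 30° C. greenhouse; injury rated at 3 weeks using earlier criteria.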

wheat = experiment: Test Example 5: effect on crop by foliage application, plastic box (symbol e); settings: 320 g/ha, 3 weeks after application
Method in brief: (§3)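 Diluvial soil, sterilized and boxed (21 × 13 × 7 cm), received spot-sown seed covered by about 1.5 cm soil; plants were then greenhouse-grown at 25–30° C.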

beet = experiment: Test Example 4: effect on crop by soil treatment (symbol f); settings: application herbicide amount 320 g/ha
Method in brief: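 Plants grew in a 25° C. to 30° C. greenhouse after spot-sowing of seeds, including beet, rapeseed, wheat and rice, into sterilized diluvial soil under roughly 1.5 cm of cover soil.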

Setaria viridis = experiment: Test Example 5: herbicidal effect by foliage application, plastic box (symbol G); settings: 320 g/ha, 3 weeks after application
Method in brief: as §2

soybean = experiment: Test Example 5: effect on crop by foliage application, plastic box (symbol d); settings: 320 g/ha, 3 weeks after application
Method in brief: as §3

Leptochloa chinensis = experiment: Test Example 3: herbicidal effect by foliage application, Wagner pot (symbol D); settings: application herbicide amount 320 g/ha
Method in brief: (§4)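 Rating at 3 weeks post-spray, by defined criteria. Treatment: emulsion diluted with water to a predetermined amount, applied evenly to foliage of 14-day-old plants raised in alluvial soil flooded 0.1–0.5 cm deep at 25–30 °C, rice co-sown.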

transplanted rice plant = experiment: Test Example 1: effect on crop, application before weed generation in submerged conditions (symbol a); settings: application herbicide amount 320 g/ha
Method in brief: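 Rice at 2.5 leaf stage transplanted into submerged soil (4 cm depth) sown with three weed species; herbicide applied before weed emergence.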

Cyperus difformis = experiment: Test Example 3: herbicidal effect by foliage application, Wagner pot (symbol E); settings: application herbicide amount 320 g/ha
Method in brief: as §4

Row | SMILES | Herbicidal effect grade, B: Scirpus juncoides (Scirpus juncoides) | N (Amaranthus retroflexus) herbicidal effect grade (Amaranthus retroflexus) | K (Lolium multiflorum Lam.) herbicidal effect grade (Lolium multiflorum Lam.) | c (corn) effect on crop grade (corn) | H (Echinochloa crus-galli var. crus-galli) herbicidal effect grade [1] | R: Veronica persica, herbicidal effect grade (Veronica persica) | e: wheat, effect on crop grade (wheat) | f (beet) effect on crop grade (beet) | G: Setaria viridis, herbicidal effect grade (Setaria viridis) | d: soybean, effect on crop grade (soybean) | herbicidal effect on D (Leptochloa chinensis), grade 0-5 (Leptochloa chinensis) | Effect grade on crop, a: transplanted rice plant (transplanted rice plant) | herbicidal effect on E, grade 0-5 (Cyperus difformis) | R: Veronica persica, herbicidal effect (criteria 0-5) (Veronica persica) | e: wheat, effect on crop (criteria 0-5) (wheat) | G: Setaria viridis, herbicidal effect (criteria 0-5) (Setaria viridis) | d: soybean, effect on crop (criteria 0-5) (soybean)
1 | CON=C(C)CC1CC(OC(=O)C(C)(C)Oc2ccc(Cl)cc2)=C(c2c(C)cc(C)cc2C)C1=O (stereo not drawn) [1-051] | 5 (Herbicidal ratio of 90% or more (almost completely withered)) | 4 (Herbicidal ratio of 70% or higher and lower than 90%) | 5 (Herbicidal ratio of 90% or more (almost completely withered)) | 4 (Herbicidal ratio of 70% or higher and lower than 90%) | 5 (Herbicidal ratio of 90% or more (almost completely withered)) | 0 (Herbicidal ratio of 5% or lower (almost no effect)) | 5 (Herbicidal ratio of 90% or more (almost completely withered)) | 0 (Herbicidal ratio of 5% or lower (almost no effect)) | 5 (Herbicidal ratio of 90% or more (almost completely withered)) | 4 (Herbicidal ratio of 70% or higher and lower than 90%) | 5 (Herbicidal ratio of 90% or more (almost completely withered)) | 5 (Herbicidal ratio of 90% or more (almost completely withered)) | 5 (Herbicidal ratio of 90% or more (almost completely withered)) |  |  |  | 
2 | CON=C(C)CC1CC(OC(=O)C(C)(C)F)=C(c2c(C)cc(C)cc2C)C1=O (stereo not drawn) [1-039] | 5 (Herbicidal ratio of 90% or more (almost completely withered)) | 5 (Herbicidal ratio of 90% or more (almost completely withered)) | 5 (Herbicidal ratio of 90% or more (almost completely withered)) | 4 (Herbicidal ratio of 70% or higher and lower than 90%) | 5 (Herbicidal ratio of 90% or more (almost completely withered)) |  | 5 (Herbicidal ratio of 90% or more (almost completely withered)) | 3 (Herbicidal ratio of 40% or higher and lower than 70%) | 5 (Herbicidal ratio of 90% or more (almost completely withered)) | 4 (Herbicidal ratio of 70% or higher and lower than 90%) | 5 (Herbicidal ratio of 90% or more (almost completely withered)) | 5 (Herbicidal ratio of 90% or more (almost completely withered)) | 5 (Herbicidal ratio of 90% or more (almost completely withered)) |  |  |  | 
3 | CON=C(C)CC1CC(OC(=O)COc2ccc(F)cc2)=C(c2c(C)cc(C)cc2C)C1=O (stereo not drawn) [1-073] | 5 (Herbicidal ratio of 90% or more (almost completely withered)) | 5 (Herbicidal ratio of 90% or more (almost completely withered)) | 5 (Herbicidal ratio of 90% or more (almost completely withered)) | 4 (Herbicidal ratio of 70% or higher and lower than 90%) | 5 (Herbicidal ratio of 90% or more (almost completely withered)) |  |  |  |  |  | 5 (Herbicidal ratio of 90% or more (almost completely withered)) | 5 (Herbicidal ratio of 90% or more (almost completely withered)) | 5 (Herbicidal ratio of 90% or more (almost completely withered)) | 3 (Herbicidal ratio of 40% or higher and lower than 70%) | 5 (Herbicidal ratio of 90% or more (almost completely withered)) | 5 (Herbicidal ratio of 90% or more (almost completely withered)) | 3 (Herbicidal ratio of 40% or higher and lower than 70%)
4 | CC(CC1CC(O)=C(c2c(C)cc(C)cc2C)C1=O)=NOCc1ccccc1F (stereo not drawn) [1-026] | 5 (Herbicidal ratio of 90% or more (almost completely withered)) | 0 (Herbicidal ratio of 5% or lower (almost no effect)) | 5 (Herbicidal ratio of 90% or more (almost completely withered)) | 0 (Herbicidal ratio of 5% or lower (almost no effect)) | 5 (Herbicidal ratio of 90% or more (almost completely withered)) |  | 2 (Herbicidal ratio of 20% or higher and lower than 40%) |  | 5 (Herbicidal ratio of 90% or more (almost completely withered)) | 0 (Herbicidal ratio of 5% or lower (almost no effect)) | 5 (Herbicidal ratio of 90% or more (almost completely withered)) | 5 (Herbicidal ratio of 90% or more (almost completely withered)) | 5 (Herbicidal ratio of 90% or more (almost completely withered)) |  |  |  | 
